Results from patent publication US9102614B2, “Naphth-2-ylacetic acid derivatives to treat AIDS” (Gilead Sciences, Inc., priority 2010, dated 2015).

Each compound was assayed on HIV-IIIb (assay: Test A: Antiviral Assays in MT4 Cells). Conditions: Human immunodeficiency virus 1, IIIB, MT4, 120 h.
Type: cell-based
Summary of the method: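 MT-4 cells pre-infected with HIV-IIIb (0.004 m.o.i.) at 37 °C, then plated with 3-fold serially diluted compound (10 concentrations, quadruplicate, RPMI 1640/10% FBS). After 5 days at 37 °C, cell viability read by CellTiter-Glo chemiluminescence; mock-infected cells run in parallel.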

| SMILES | EC50 [µM] |
| --- | --- |
| Cc1cc2ccccc2c(-c2cccc(N3CCC3)c2)c1[C@H](OC(C)(C)C)C(=O)O [Compound 19, (S)-2-(1-(3-(Azetidin-1-yl)phenyl)-3-methylnaphthalen-2-yl)-2-tert-butoxyacetic acid] | 5.4 |

Same assay, conditions: Human immunodeficiency virus 1, IIIB, MT4, 120 h, MT-4 cells infected with HIV-IIIb (0.004 m.o.i.), 5 days of incubation, CellTiter-Glo chemiluminescence readout; read-out: EC50

| SMILES | EC50 [µM] |
| --- | --- |
| Cc1ccc2cc(C)c(C(OC(C)(C)C)C(=O)O)c(-c3ccc(Cl)cc3)c2c1 (stereo not shown) [Compound 78, 2-tert-Butoxy-2-(1-(4-chlorophenyl)-3,7-dimethylnaphthalen-2-yl)acetic acid] | 0.3 |
| Cc1cc2ccc(C#CC3CCCC3)cc2c(-c2ccc(Cl)cc2)c1C(OC(C)(C)C)C(=O)O (stereo not shown) [Compound 74, 2-tert-Butoxy-2-(1-(4-chlorophenyl)-7-(cyclopentylethynyl)-3-methylnaphthalen-2-yl)acetic acid] | 1.2 |
| Cc1cc2ccccc2c(C2=CCCCC2)c1[C@H](OC(C)(C)C)C(=O)O [Compound 8, (S)-2-tert-Butoxy-2-(1-cyclohexenyl-3-methylnaphthalen-2-yl)acetic acid] | 0.025 |
| Cc1c(C(OC(C)(C)C)C(=O)O)c(-c2ccc(Cl)cc2)c2ccccc2c1CN(C)C (stereo not shown) [Compound 133, 2-tert-Butoxy-2-(1-(4-chlorophenyl)-4-((dimethylamino)methyl)-3-methylnaphthalen-2-yl)acetic acid] | 0.123 |
| Cc1cc2cc(F)ccc2c(-c2ccc(Cl)cc2)c1C(OC(C)(C)C)C(=O)O (stereo not shown) [Compound 42, 2-tert-Butoxy-2-(1-(4-chlorophenyl)-6-fluoro-3-methylnaphthalen-2-yl)acetic acid] | 0.11 |
| COCc1cc2ccccc2c(-c2ccc(Cl)cc2)c1[C@H](OC(C)(C)C)C(=O)O [Compound 28, (S)-2-tert-Butoxy-2-(1-(4-chlorophenyl)-3-(methoxymethyl)naphthalen-2-yl)acetic acid] | 0.4 |
| Cc1cc2cc(Cl)ccc2c(-c2ccc3c4c(ccnc24)CCO3)c1[C@@H](OC(C)(C)C)C(=O)O (atropisomer, axis not shown) [Compound 177] | 37 |
| Cc1c(C(OC(C)(C)C)C(=O)O)c(-c2ccc(Cl)cc2)c2ccccc2c1-c1cnc(=O)[nH]c1 (stereo not shown) [Compound 146, 2-tert-Butoxy-2-(1-(4-chlorophenyl)-3-methyl-4-(2-oxo-1,2-dihydropyrimidin-5-yl)naphthalen-2-yl)acetic acid] | 10 |
| Cc1cc2ccc(CCC3CCCC3)cc2c(-c2ccc(Cl)cc2)c1C(OC(C)(C)C)C(=O)O (stereo not shown) [Compound 90, 2-tert-Butoxy-2-(1-(4-chlorophenyl)-7-(2-cyclopentylethyl)-3-methylnaphthalen-2-yl)acetic acid] | 31 |
| Cc1cc2c(F)cc(F)cc2c(-c2ccc3c4c(ccnc24)CCO3)c1[C@H](OC(C)(C)C)C(=O)O (atropisomer, axis not shown) [Compound 172] | 50 |
| CC(C)(C)O[C@H](C(=O)O)c1c(C(F)F)cc2ccccc2c1-c1ccc2c3c(ccnc13)CCO2 [Compound 32, (S)-2-tert-Butoxy-2-((R)-3-(difluoromethyl)-1-(2,3-dihydropyrano[4,3,2-de]quinolin-7-yl)naphthalen-2-yl)acetic acid] | 0.086 |
| Cc1cc2cc(F)c(F)cc2c(-c2ccc3c4c(ccnc24)CCO3)c1[C@H](OC(C)(C)C)C(=O)O (atropisomer, axis not shown) [Compound 174] | 3.2 |
| Cc1cc2ccccc2c(-c2ccc3c4c2N(C)CCC4CCO3)c1[C@H](OC(C)(C)C)C(=O)O (stereo partly drawn) [Compound 22, (2S)-2-tert-Butoxy-2-(3-methyl-1-((7R)-6-methyl-2,3,3a,4,5,6-hexahydropyrano[4,3,2-de]quinolin-7-yl)naphthalen-2-yl)acetic acid] | 0.54 |
| Cc1c(C(OC(C)(C)C)C(=O)O)c(-c2ccc(Cl)cc2)c2ccccc2c1C (stereo not shown) [Compound 127, 2-tert-Butoxy-2-(1-(4-chlorophenyl)-3,4-dimethylnaphthalen-2-yl)acetic acid] | 0.087 |
| Cc1cc2ccccc2c(-c2cnc3ccccc3c2)c1[C@H](OC(C)(C)C)C(=O)O [Compound 16, (S)-2-tert-Butoxy-2-(3-methyl-1-(quinolin-3-yl)naphthalen-2-yl)acetic acid] | 7 |
| Cc1c(C(OC(C)(C)C)C(=O)O)c(-c2ccc(Cl)cc2)c2ccccc2c1CCCN(C)C (stereo not shown) [Compound 132, 2-tert-Butoxy-2-(1-(4-chlorophenyl)-4-(3-(dimethylamino)propyl)-3-methylnaphthalen-2-yl)acetic acid] | 0.118 |
| Cc1cc2cc(-c3cnccn3)ccc2c(-c2ccc(Cl)cc2)c1[C@H](OC(C)(C)C)C(=O)O [Compound 60, (S)-2-tert-Butoxy-2-(1-(4-chlorophenyl)-3-methyl-6-(pyrazin-2-yl)naphthalen-2-yl)acetic acid] | 0.032 |
| CC(=O)NC(C)(C)C#Cc1ccc2cc(C)c(C(OC(C)(C)C)C(=O)O)c(-c3ccc(Cl)cc3)c2c1 (stereo not shown) [Compound 96, 2-(7-(3-Acetamido-3-methylbut-1-ynyl)-1-(4-chlorophenyl)-3-methylnaphthalen-2-yl)-2-tert-butoxyacetic acid] | 0.088 |
| Cc1c([C@H](OC(C)(C)C)C(=O)O)c(-c2ccc(Cl)cc2)c2ccccc2c1Br [Compound 150B, (S)-2-(4-bromo-1-(4-chlorophenyl)-3-methylnaphthalen-2-yl)-2-tert-butoxyacetic acid] | 0.26 |
| Cc1cc2ccccc2c(C2=CCC(C)(C)CC2)c1[C@H](OC(C)(C)C)C(=O)O [Compound 14, (S)-2-tert-Butoxy-2-(1-(4,4-dimethylcyclohex-1-enyl)-3-methylnaphthalen-2-yl)acetic acid] | 0.011 |
| Cc1cc2ccccc2c(-c2cccc3cccnc23)c1[C@H](OC(C)(C)C)C(=O)O [Compound 4L, (S)-2-tert-butoxy-2-((S)-3-methyl-1-(quinolin-8-yl)naphthalen-2-yl)acetic acid] | 22 |

Same assay, conditions: MT-4 cells infected with HIV-IIIb (0.004 m.o.i.), 5 days of incubation, CellTiter-Glo chemiluminescence readout; read-out: EC50

| SMILES | EC50 [µM] |
| --- | --- |
| CCc1cc2cc(C)c([C@H](OC(C)(C)C)C(=O)O)c(-c3ccc4c5c(ccnc35)CCO4)c2cc1F [Compound 104, (S)-2-tert-Butoxy-2-((R)-1-(2,3-dihydropyrano[4,3,2-de]quinolin-7-yl)-6-ethyl-7-fluoro-3-methylnaphthalen-2-yl)acetic acid] | 0.036 |
| Cc1cc2c(Cl)c(C)ccc2c(-c2ccc3c4c(ccnc24)CCO3)c1[C@H](OC(C)(C)C)C(=O)O [Compound 116, (S)-2-tert-Butoxy-2-((R)-5-chloro-1-(2,3-dihydropyrano[4,3,2-de]quinolin-7-yl)-3,6-dimethylnaphthalen-2-yl)acetic acid] | 0.016 |
| Cc1ccc2c(-c3ccc4c5c(ccnc35)CCO4)c([C@H](OC(C)(C)C)C(=O)O)c(C)cc2c1 [Compound 68B, (S)-2-tert-Butoxy-2-((R)-1-(2,3-dihydropyrano[4,3,2-de]quinolin-7-yl)-3,6-dimethylnaphthalen-2-yl)acetic acid] | 0.005 |
| Cc1cc2ccccc2c(-c2ccc3c4c(ccnc24)CCO3)c1[C@H](OC(C)(C)C)C(=O)O [Compound 5K, (S)-2-tert-Butoxy-2-((S)-1-(2,3-dihydropyrano[4,3,2-de]quinolin-7-yl)-3-methylnaphthalen-2-yl)acetic acid] | 4.6 |
| Cc1cc2ccccc2c(-c2cc(F)cc3cccnc23)c1[C@H](OC(C)(C)C)C(=O)O [Compound 159] | 1.3 |
| Cc1cc2ccccc2c(-c2cccc3cccnc23)c1[C@H](OC(C)(C)C)C(=O)O [Compound 4K, (S)-2-tert-butoxy-2-((R)-3-methyl-1-(quinolin-8-yl)naphthalen-2-yl)acetic acid] | 0.301 |
